Results published in ChEMBL document CHEMBL1777720, “Novel, potent, and orally bioavailable phosphinic acid inhibitors of the hepatitis C virus NS3 protease” (Bioorg Med Chem Lett, 2011).

Columns and labels:
[1] = Oral bioavailability in dog at 3 mg/kg; type: ADME, organism-based, Canis lupus familiaris; conditions: in vivo
[2] = Clearance in dog at 1 mg/kg, iv; type: ADME, organism-based, Canis lupus familiaris; set-up: dose 1 mg/kg, route intravenous; conditions: in vivo
[3] = Inhibition of HCV 1a NS3/4A protease; set-up: species or system Hepatitis C virus subtype 1a
Hepatitis C virus = assay: Antiviral activity against HCV genotype 1b infected in Huh7 cells assessed as inhibition of viral replication by cell-based replicon assay; type: functional, organism-based, Hepacivirus hominis; conditions: Huh-7
[4] = Clearance in rat at 0.4 mg/kg, iv; type: ADME, organism-based; set-up: dose 0.4 mg/kg, route intravenous; conditions: in vivo
[5] = Oral bioavailability in rat at 10.7 mg/kg, po; type: ADME, organism-based; conditions: in vivo
[6] = Clearance in dog at 0.5 mg/kg, iv; type: ADME, organism-based, Canis lupus familiaris; set-up: dose 0.5 mg/kg, route intravenous; conditions: in vivo
[7] = Oral bioavailability in dog at 4 mg/kg; type: ADME, organism-based, Canis lupus familiaris; conditions: in vivo

| Structure (SMILES) | clearance [2] [L/h/kg] | IC50 [3] [nM] | EC50 (Hepatitis C virus) [nM] | other results |
| --- | --- | --- | --- | --- |
| C=C[C@@H]1C[C@]1(NC(=O)[C@@H]1C[C@@H](Oc2cc(-c3csc(NC(C)C)n3)nc3cc(OC)ccc23)CN1C(=O)[C@@H](NC(=O)OC1CCCC1)C(C)(C)C)P(=O)(O)O | 0.67 | – | – | bioavailability [1]: 0.5% |
| C=C[C@@H]1C[C@]1(NC(=O)[C@@H]1C[C@@H](Oc2cc(-c3csc(NC(C)C)n3)nc3cc(OC)ccc23)CN1C(=O)[C@@H](NC(=O)OC1CCCC1)C(C)(C)C)P(C)(=O)O | – | 6 | 69 | clearance [4]: 1.72 L/h/kg; bioavailability [5]: 0.4% |
| C=C[C@@H]1C[C@]1(NC(=O)[C@@H]1C[C@@H](Oc2cc(-c3csc(NC(C)C)n3)nc3cc(OC)ccc23)CN1C(=O)[C@@H](NC(=O)OC1CCCC1)C(C)(C)C)P(=O)(O)CC | – | 8 | 390 | – |
| C=C[C@@H]1C[C@]1(NC(=O)[C@@H]1C[C@@H](Oc2cc(-c3csc(NC(C)C)n3)nc3cc(OC)ccc23)CN1C(=O)[C@@H](NC(=O)OC1CCCC1)C(C)(C)C)P(=O)(O)CCCC | – | 8 | 49 | – |
| C=C[C@@H]1C[C@]1(NC(=O)[C@@H]1C[C@@H](Oc2cc(-c3csc(NC(C)C)n3)nc3cc(OC)ccc23)CN1C(=O)[C@@H](NC(=O)OC1CCCC1)C(C)(C)C)P(=O)(O)C(C)C | – | 86 | 3080 | – |
| C=C[C@@H]1C[C@]1(NC(=O)[C@@H]1C[C@@H](Oc2cc(-c3csc(NC(C)C)n3)nc3cc(OC)ccc23)CN1C(=O)[C@@H](NC(=O)OC1CCCC1)C(C)(C)C)P(=O)(O)c1ccccc1 | – | 44 | 2650 | – |
| COc1ccc2c(O[C@@H]3C[C@H]4C(=O)N[C@]5(C(=O)O)C[C@H]5C=CCCCCC[C@H](NC(=O)OC5CCCC5)C(=O)N4C3)cc(-c3csc(NC(C)C)n3)nc2c1 [CILUPREVIR] | – | 1 | 1 | – |

Continued, in another order:

| clearance [2] [L/h/kg] | IC50 [3] [nM] | EC50 (Hepatitis C virus) [nM] | Structure (SMILES) | other results |
| --- | --- | --- | --- | --- |
| – | 1 | 5 | COc1ccc2c(O[C@@H]3C[C@H]4C(=O)N[C@]5(P(=O)(O)O)C[C@H]5/C=C/CCCCC[C@H](NC(=O)OC5CCCC5)C(=O)N4C3)cc(-c3csc(NC(C)C)n3)nc2c1 | – |
| – | 9 | 180 | C=C[C@@H]1C[C@]1(NC(=O)[C@@H]1C[C@@H](Oc2cc(-c3csc(NC(C)C)n3)nc3cc(OC)ccc23)CN1C(=O)[C@@H](NC(=O)OC1CCCC1)C(C)(C)C)P(=O)(O)Cc1ccccc1 | bioavailability [1]: 4.6%; clearance [6]: 0.64 L/h/kg; clearance [4]: 2.2 L/h/kg |
| – | 6 | 311 | C=C[C@@H]1C[C@]1(NC(=O)[C@@H]1C[C@@H](Oc2cc(-c3csc(NC(C)C)n3)nc3cc(OC)ccc23)CN1C(=O)[C@@H](NC(=O)OC1CCCC1)C(C)(C)C)P(=O)(O)Cc1ccccc1Cl | – |
| – | 6 | 47 | C=C[C@@H]1C[C@]1(NC(=O)[C@@H]1C[C@@H](Oc2cc(-c3csc(NC(C)C)n3)nc3cc(OC)ccc23)CN1C(=O)[C@@H](NC(=O)OC1CCCC1)C(C)(C)C)P(=O)(O)Cc1ccccc1OC | – |
| – | 3 | 10 | COc1ccc2c(O[C@@H]3C[C@H]4C(=O)N[C@]5(P(=O)(O)Cc6ccccc6)C[C@H]5/C=C/CCCCC[C@H](NC(=O)OC5CCCC5)C(=O)N4C3)cc(-c3csc(NC(C)C)n3)nc2c1 | – |
| 0.36 | 6 | 5 | COc1ccc2c(O[C@@H]3C[C@H]4C(=O)N[C@]5(P(=O)(O)Cc6ccccc6)C[C@H]5CCCCCCC[C@H](NC(=O)OC5CCCC5)C(=O)N4C3)cc(-c3csc(NC(C)C)n3)nc2c1 | bioavailability [7]: 6.4% |
| 0.56 | 1 | 5 | COc1ccc2c(O[C@@H]3C[C@H]4C(=O)N[C@]5(P(=O)(O)Cc6ccccc6Cl)C[C@H]5/C=C/CCCCC[C@H](NC(=O)OC5CCCC5)C(=O)N4C3)cc(-c3csc(NC(C)C)n3)nc2c1 | – |
| 0.19 | 3 | 5 | COc1ccc2c(O[C@@H]3C[C@H]4C(=O)N[C@]5(P(=O)(O)Cc6ccccc6Cl)C[C@H]5CCCCCCC[C@H](NC(=O)OC5CCCC5)C(=O)N4C3)cc(-c3csc(NC(C)C)n3)nc2c1 | – |
| 1.04 | 3 | 9 | COc1ccc2c(O[C@@H]3C[C@H]4C(=O)N[C@]5(P(=O)(O)Cc6ccccc6OC)C[C@H]5/C=C/CCCCC[C@H](NC(=O)OC5CCCC5)C(=O)N4C3)cc(-c3csc(NC(C)C)n3)nc2c1 | – |
| 0.32 | 3 | 7 | COc1ccc2c(O[C@@H]3C[C@H]4C(=O)N[C@]5(P(=O)(O)Cc6ccccc6OC)C[C@H]5CCCCCCC[C@H](NC(=O)OC5CCCC5)C(=O)N4C3)cc(-c3csc(NC(C)C)n3)nc2c1 | – |
